Experimental data from patent publication US11331371B2, “Labyrinthopeptins as anti-viral agents” (Helmholtz-Zentrum Für Infektionsforschung GMBH, priority 2015, dated 2022).
Where two headings read alike, the source gives them in different places.

Tests used:
KSHV = details: read-out: IC50 of the anti-viral activity, KSHV; HEK 293 cells, MOI 0.01, 48 h
[1] = tested on: VSV glycoprotein-mediated cell entry (VSV-G-pseudotyped lentiviral particles); details: 48 h
[2] = tested on: CHIKV glycoprotein-mediated cell entry (CHIKV gp-pseudotyped lentiviral particles); details: CHIKV glycoprotein pseudotypes, 293T cells, 48 h
ZIKV (Strain MR766-NIID) = details: read-out: IC50 of the anti-viral activity, ZIKV; Huh-7.5 cells, MOI 0.5, 48 h, genome copy equivalents
[3] = Cell-based HTS system for cytotoxic concentration (CC50), FF-luc HEp-2 cells; details: 72 h, concentrations up to 100 μM, read-out: half maximal cytotoxic concentration (CC50)
Protocol: Cells (e.g. HEp-2 cells), which stably express the reporter gene of a firefly luciferase (FF-luc), may be seeded in a 96-well plate in media, e.g. in Gibco® Advanced MEM. After 72 h of incubation at 37° C. in the presence of increasing concentrations of the labyrinthopeptin, labyrinthopeptin derivative or combination to be tested (e.g. up to 100 μM), the cells may be lysed and the extinction of the FF-luc (RLU) may be measured. Therefore, a plate luminometer (Berthold) may be used. The number of surviving cells is […] proportional to residual luciferase expression.
A cell-based screening system was used to determine the cytotoxic concentration (CC50) of labyrinthopeptin A1 and A2.
1×10^4 HEp-2 cells, which are stably expressing the reporter gene of a firefly luciferase (FF-luc), were seeded in a 96-well plate in 200 μl appropriate media. After 72 h of incubation at 37° C. in the presence of increasing concentrations of labyrinthopeptin A1 or A2 up to 100 μM, the cells have been lysed in 35 μl lysis buffer and the extinction of the FF-luc (RLU) was measured using a plate luminometer (Berthold). The number of surviving cells is […] proportional to residual luciferase expression.

[4] = tested on: Dengue Virus (Type 2 New Guinea C); assay: Dose response assay, DENV infection of Huh-7.5 cells, DENV envelope protein immunostaining, high-content imaging; format: cell-based; details: MOI 0.5, 48 h post-infection; for IC50: read-out: IC50 of the anti-viral activity, DENV
Protocol: Huh-7.5 cells (3×10^4 per well) were seeded in black 96-well optical-bottom plates [Nunc] in full growth medium one day prior to infection. After washing with PBS, 40 μl assay medium (5% FBS) was added to cells containing either Laby A1, Laby A2 (final conc. 50, 16.7, 5.56, 1.85, 0.62, 0.21, 0.069 μg/ml) or a combination of Laby A1 and Laby A2 (25, 8.3, 2.8, 0.93, 0.31, 0.10, 0.034 μg/ml each). Treatments were run in doublets. PBS served as a control. After 30 min of incubation, cells were infected with Dengue Virus (Type 2 New Guinea C) at an MOI of 0.5 to give a final volume of 60 μl/well. After 2 h incubation at room temperature cells were washed with PBS and 100 μl assay medium was added per well. Infected cells were incubated for another 48 h. Hereafter media were removed from the wells and cells were fixed with 4% PFA. Fixed cells were washed extensively with PBS and permeabilized with 0.25% TritonX-100 for 5 min. After blocking with 5% FB in PBS primary antibody was applied (Anti-Dengue Virus E glycoprotein antibody [DE1] (ab41349) [Abcam], 1:100 diluted in 5% FBS/PBS) for 2 h. After washing secondary antibody (Alexa Fluor® 488 Goat Anti-Mouse IgG (H+L) [Life Technologies], 1:1000 diluted in 5% FBS/PBS) was applied for 1 h. Finally, cells were stained with DAPI (500 ng/ml in PBS) for 5 min.
Fluorescent cells were analyzed by high-content imaging using the automated microscope ImageXpressMicro [Molecular Devices] and the MetaXpress-software. […] The number of total cells/site was determined by automatically counting DAPI-stained nuclei. The percentage of DENV-positive cells was calculated by automatically evaluating the number of Alexa Fluor 488-positive cells in relation to the total cell number. […] IC50-values were calculated by non-linear regression.
To determine a potential synergistic effect of Labyrinthopeptins A1 and A2 on DENV-infection a dose response assay was performed. […] The number of total cells as well as the percentage of Alexa Fluor 488-positive cells (=DENV positive cells) was determined by high-content fluorescence imaging.

[5] = tested on: GFP-expressing CMV (HCMV) strain pHG-1 (HT8-GFP, AD169-based); details: read-out: IC50 of the anti-viral activity, CMV, NHDF cells, MOI 0.5, GFP at day 4 post infection
Huh 7.5 Fluc cells = assay: Cell viability (firefly luciferase) in the HCV assay
TBEV (Toro isolate) = details: read-out: IC50 of the anti-viral activity, TBEV; Vero-B4 cells, MOI 0.01, 3 days, estimated by visual inspection
[6] = tested on: human respiratory syncytial virus (RSV); details: read-out: IC50, inhibition of RSV induced cell death; FF-luc HEp-2 cells, MOI 3, 72 h, indirect assay
[7] = tested on: peripheral blood mononuclear cells (PBMCs); details: cited from earlier work
wild-type RSV (hRSV) = details: read-out: IC50 of the anti-viral activity, RSV; intracellular RSV-P staining, HEp 2 cells, MOI 1, 18 h post infection
HCV JcR2a = details: Huh 7.5 Fluc cells, Renilla luciferase after 48 h
[8] = tested on: GFP-expressing CMV strain HT8-GFP (AD169); assay: Mode of action assay, pretreatment of CMV particles or NHDF cells; format: cell-based, Human cytomegalovirus; details: LabyA1 3 μM, LabyA2 7 μM, PAA 180 μM

Row | Compound | IC50 (KSHV) [µM] | IC50 [1] [µM] | IC50 of the anti-viral activity, VSV [1] [µg/mL] | IC50 of the anti-viral activity, CHIKV [2] [µg/mL] | IC50 ([2]; read-out: IC50 of the anti-viral activity, CHIKV) [µM] | IC50 (ZIKV (Strain MR766-NIID)) [µM] | CC50 [3] [µM] | IC50 [4] [µM] | IC50 [5] [µM] | IC50 ([5]; listed as Labyrinthopeptin A1) [µM] | cytotoxicity at the tested concentrations in the HCV assay (Huh 7.5 Fluc cells) | IC50 (TBEV (Toro isolate)) [µM] | IC50 [6] [µM] | inflammatory response in PBMCs [7] | IC50 (wild-type RSV (hRSV)) [µM] | IC50 (HCV JcR2a; read-out: IC50 of the anti-viral activity, HCV (virus entry), 4 h inoculation) [µM] | IC90 (HCV JcR2a; read-out: IC90, inhibition of HCV virus entry) [µM] | IC50 of the anti-viral activity, DENV [4] [µg/mL] | inhibition of viral gene expression (CMV), permanently treated, effective dose ([8]; treatment throughout the infection cycle) | inhibition of viral gene expression (CMV), virus pretreated ([8]; virus pretreated 1 h then diluted 16-fold)
1 | C/C=C1\NC(=O)[C@H](Cc2ccccc2)NC(=O)[C@@H]2CCCN2C(=O)[C@H](C(C)C)NC(=O)[C@H](Cc2c[nH]c3ccccc23)NC(=O)[C@]23CSC[C@H](NC1=O)C(=O)N[C@H](C(=O)O)CSSC[C@H](NC(=O)[C@@H]1CSC[C@]4(C[C@H](N)C(=O)N[C@@H](CC(N)=O)C(=O)N[C@@H](C)C(=O)N4)C(=O)N[C@@H](C(C)C)C(=O)N[C@@H](Cc4c[nH]c5ccccc45)C(=O)N[C@@H](CCC(=O)O)C(=O)N1)C(=O)N[C@@H](C2)C(=O)N[C@@H]([C@@H](C)O)C(=O)NCC(=O)N3 [LabyA1, Labyrinthopeptin A1] | 2 | 1.1 to 3.7 | 2.3 to 7.7 | 1.0 to 3.5 | 0.5 to 1.7 | 2.22 | 79.7 | 1.78 | 1.3 | ~1.3 | No cytotoxicity was observed | 24.1 | 3.87 | does not cause an inflammatory response | 0.39 | 1.05 | 9.16 | – | – | –
2 | C#CCCCC(=O)N[C@H]1C[C@]2(CSC[C@@H](C(=O)N[C@H]3CSSC[C@@H](C(=O)O)NC(=O)[C@@H]4CSC[C@]5(C[C@H](NC3=O)C(=O)N[C@@H]([C@@H](C)O)C(=O)NCC(=O)N5)C(=O)N[C@@H](CC(C)C)C(=O)N[C@@H](Cc3ccccc3)C(=O)N[C@@H](C)C(=O)N4)NC(=O)[C@H](CCC(=O)O)NC(=O)[C@H](Cc3c[nH]c4ccccc34)NC(=O)[C@H](CC(C)C)NC2=O)NC(=O)[C@H](Cc2c[nH]c3ccccc23)NC(=O)[C@H](CC(=O)O)NC1=O [LabyA2-hexyn] | – | – | – | – | – | – | – | 7.03 | – | – | – | – | – | – | – | – | – | 14.2 | – | –
3 | O=C(O)CP(=O)(O)O [PAA, phosphonoacetic acid] | – | – | – | – | – | – | – | – | – | – | – | – | – | – | – | – | – | – | exerted inhibition only when permanently present in the culture medium | not when it was removed after pretreatment of the virus or cells
